Assay results reported in ChEMBL document CHEMBL3301546, “MMV Malaria Box yeast growth screening”.

Experiments:
Format in all cases: functional
Saccharomyces cerevisiae [1] = experiment: (§1) MMV: Growth assays were conducted using the prototrophic S. cerevisiae strain JHY222. Each MMV compound (0.1 mM) was tested in minimal media containing dextrose as a carbon source (Yeast Nitrogen Base, Dextrose; YNBD). The growth rate in the presence of each MMV compound was calculated as follows: (i) the first 10 OD readings were averaged and subtracted from all OD readings of the corresponding curve to set the baseline of the growth curve to zero, and (ii) the area under the curve (AUC) was then calculated as the sum of all OD readings. […] A relative growth value was calculated as follows: AUC(DRUG) - AUC(DMSO)/AUC(DMSO); where AUC(DMSO) represents growth measured in a DMSO control well that was on the same microtiter plate of the drug-treated culture.
Saccharomyces cerevisiae [2] = experiment: as §1, with “rich” for “minimal”, “Extract, Peptone,” for “Nitrogen Base,”, “YPD).” for “YNBD).”
Saccharomyces cerevisiae [3] = experiment: as §1, with “ethanol and glycerol” for “dextrose”, “as” for “as a”, “sources” for “source”, “Ethanol, Glycerol; YNBEG).” for “Dextrose; YNBD).”

Row | Compound | Relative Growth (Saccharomyces cerevisiae [1]) | Relative Growth (Saccharomyces cerevisiae [2]) | Relative Growth (Saccharomyces cerevisiae [3])
1 | CN1CCN(c2ccc(Nc3c4ccccc4nc4ccccc34)cc2)CC1 | 0.0237 | 0.031 | 0.1233
2 | O=C(Nc1ccc(Cl)c(Cl)c1)Nc1ccc(Cl)c(Cl)c1 | 0.0087 | -0.0117 | 0.0859
3 | CCN1CCCC1CNc1[nH]cnc2c3cc(Cl)ccc3nc1-2 (stereo not drawn) | -0.0942 | -0.0942 | -0.3246
4 | COc1ccc(-c2c(C)nn3c(N)c(C#N)cnc23)cc1OC | -0.0079 | -0.0311 | -0.7097
5 | N=c1n(CCN2CCCCC2)c2ccccc2n1CC(=O)c1ccc(Cl)c(Cl)c1 | 0.1082 | -0.0413 | 0.0494
6 | C[n+]1c2ccccc2nc2ccc(NCCO)cc21 | 0.0053 | -0.1972 | -0.0436
7 | Nc1nc(Nc2cccc(F)c2)nc2ccccc12 | -0.0889 | -0.0359 | -0.012
8 | Cc1sc(NC(=O)c2ccco2)c(C(c2cccnc2)N2CCC(Cc3ccccc3)CC2)c1C (stereo not drawn) | 0.0125 | -0.0153 | 0.0498
9 | COC(=O)c1ccc(Cl)c2c1C1C=CCC1C(c1cccc3ccccc13)N2 (stereo not drawn) | 0.053 | -0.0285 | 0.0199
10 | Cc1ccc(-c2cc3c(nn2)-c2ccccc2C3=O)cc1 | -0.1641 | -0.0004 | -0.6667
11 | CCN(CC)CCNc1ccnc2cc(Cl)ccc12 | 0.0543 | -0.0501 | 0.0209
12 | O=C(CCc1ccccc1)c1ccccc1OCC(O)CN1CCCCC1 (stereo not drawn) | 0.0209 | -0.6663 | -0.1402
13 | Cc1ccc(Nc2nc(-c3ccccn3)cs2)cc1 | 0.0898 | 0.0194 | 0.1504
14 | Cc1cc(Nc2ccc3ccccc3c2)n2ncnc2n1 | 0.0095 | 0.0302 | -0.024
15 | Cc1cc(NCCN2CCCCC2)c2ccc3ccccc3c2n1 | 0.1405 | 0.101 | 0.1901
16 | COc1ccc(-n2ccnc2SCC(=O)Nc2cc(C)ccc2C)c(OC)c1 | -0.0529 | -0.0469 | 0.0762
17 | COc1cc(C(=O)Nc2ccc(-c3nc4ccccc4[nH]3)cc2)cc(OC)c1OC | -0.5664 | -0.1004 | -0.2463
18 | O=C(O)C1Cc2c([nH]c3ccccc23)C(c2ccc(Cl)cc2Cl)N1 (stereo not drawn) | -0.0148 | -0.035 | 0.1085
19 | Cc1ccc(N2C(=O)C3C(C2=O)C2(c4ccccc4)C(=O)C3(c3ccccc3)C(c3ccccc3)=C2c2ccccc2)cc1 (stereo not drawn) | 0.0552 | 0.0561 | 0.0311

Row | Compound | Relative Growth (Saccharomyces cerevisiae [1]) | Relative Growth (Saccharomyces cerevisiae [2]) | Relative Growth (Saccharomyces cerevisiae [3])
20 | Cc1ccc(C(=O)c2oc3ccc4c(C)cc(=O)oc4c3c2C)cc1 | -0.0077 | -0.0457 | -0.1519
21 | CCOC(=O)c1cn(CC)c2cc(N(C)CCc3ccc(OC)c(OC)c3)c(F)cc2c1=O | -0.8912 | -0.6378 | -0.9835
22 | O=C(CCl)NCCOc1ccc(Cl)cc1Cl | 0.0391 | -0.0085 | -0.0052
23 | O=[N+]([O-])c1ccc(C=NNc2nc3ccccc3[nH]2)cc1 | -1.0011 | -0.6981 | -1.0063
24 | CCOc1cc2c(cc1OCC)C(c1cc(OC)c(O)cc1Cl)NCC2 (stereo not drawn) | 0.0876 | -0.0054 | 0.0748
25 | CCOC(=O)c1c(NC(=O)c2ccccc2)sc2c(O)c(CN(CC)CC)ccc12 | 0.0832 | -0.0008 | 0.1716
26 | CCOC(=O)C1=C(c2ccccc2)N=c2sc(=Cc3cc(C)n(-c4ccc(F)cc4)c3C)c(=O)n2C1c1cccc(OC)c1OC (stereo not drawn) | 0.0967 | -0.0436 | 0.1067
27 | O=C(NC1CCN(Cc2ccccc2)CC1)c1cc(C(=O)NC2CCN(Cc3ccccc3)CC2)cc(C(=O)NC2CCN(Cc3ccccc3)CC2)c1 | 0.0347 | -0.0223 | -0.1727
28 | CC(=O)c1sc(NC(=O)Nc2ccc(C)cc2C)nc1C | -0.0182 | -0.0731 | 0.0857
29 | CCOc1ccc2nc(C)cc(Nc3ccc(N(C)C)cc3)c2c1.Cl | -0.1579 | -0.2818 | -0.2064
30 | Oc1ccc2ccccc2c1CNc1nc2ccccc2[nH]1 | -0.1179 | -0.0053 | -0.0356
31 | O=C(Nc1ccc(-c2nc3ccccc3[nH]2)cc1)c1ccc(Cl)c(Cl)c1 | 0.027 | 0.0053 | 0.0462
32 | Cc1cccc(Nc2nc(N)c3ccccc3n2)c1.Cl | 0.1313 | -0.0941 | 0.3952
33 | CCn1c(CN2CCN(Cc3ccccc3)CC2)nc2cc(NC(=O)c3cccs3)ccc21 | -0.4968 | -0.0008 | -0.226
34 | O=C1c2ccc3c4c(ccc(c24)C(=O)N1CCCCO)C(=O)N(CCCCO)C3=O | -0.7093 | -0.136 | -1.0287
35 | Cc1cc(N(C)C)nc(Nc2ccc(NC(=O)Nc3ccccc3)cc2)n1 | -0.0678 | -0.0299 | -0.3445
36 | c1ccc2cc3c(Nc4ccc(N5CCOCC5)cc4)ccnc3cc2c1 | 0.0841 | 0.0179 | 0.2097
37 | COc1ccccc1C(=O)ON=C(N)Cc1cccc2ccccc12 | 0.0083 | 0.0139 | 0.0174
38 | COc1cc(OC)c(N(C)C(=O)c2cc3c(s2)-c2ccccc2S(=O)(=O)C3)cc1Cl | -0.1342 | -0.2124 | -0.2428

Row | Compound | Relative Growth (Saccharomyces cerevisiae [1]) | Relative Growth (Saccharomyces cerevisiae [2]) | Relative Growth (Saccharomyces cerevisiae [3])
39 | CN1C=C(c2ccc3ccccc3n2)C(c2c[nH]c3ccccc23)c2ccccc21 (stereo not drawn) | 0.0287 | -0.6873 | -0.048
40 | COc1ccccc1NC1=C(N2CCCCC2)C(=O)c2ccccc2C1=O | 0.0574 | -0.0045 | 0.1747
41 | Oc1c(C(Nc2ccccn2)c2cccc(Oc3ccccc3)c2)ccc2cccnc12 (stereo not drawn) | 0.0038 | -0.9969 | -0.1371
42 | CCOC(=O)c1cn(CC)c2cc(N3CCCCC3)c(F)cc2c1=O | -0.2997 | -0.0482 | -0.2149
43 | CNCCCNc1ccnc2cc(Cl)ccc12 | 0.075 | 0.1016 | 0.188
44 | Cc1cc(C=C2SC(=Nc3ccccc3)N(C3CCCC3)C2=O)c(C)n1-c1ccc(Cl)cc1 | -0.1823 | 0.0207 | -0.2078
45 | CCc1ccc(Nc2cc(C)c3ccc(O)cc3n2)cc1.Cl | 0.1514 | -0.0071 | 0.0748
46 | COc1ccc2c(=O)cc(C(Cl)(Cl)Cl)oc2c1 | 0.0555 | 0.0032 | -0.0182
47 | CSc1ccccc1C(=O)Nc1nc(-c2ccccn2)cs1 | -0.0928 | -0.0643 | -0.2282
48 | Br.CCn1c2c(c(=N)c3c1CCC3)CCCC2 | -0.0127 | -0.135 | -0.0042
49 | Cc1ccc2c(C)nc(Nc3nc(C)cc(-c4ccccc4)n3)nc2c1 | -0.1458 | -0.9982 | -0.009
50 | Cc1cc(Nc2ccc(Cl)cc2)n2nc(C(F)(F)F)nc2n1 | 0.0221 | 0.0103 | -0.0099
51 | Cc1ccc(N2C3c4ccccc4N(S(=O)(=O)c4ccc(C)cc4)C2c2ccccc2N3S(=O)(=O)c2ccc(C)cc2)cc1 | -0.0282 | -0.0583 | -0.3051
52 | Br.Cc1ccc(C)c(-c2csc(Nc3ccc(C)c(C)c3)n2)c1 | -0.0757 | -0.11 | -0.3216
53 | CCCc1c(CC)c(=N)c2ccccc2n1C | -0.0316 | -0.0123 | -0.1464
54 | CN(C)c1ccc(N=Cc2ccc(N3CCOCC3)cc2)cc1 | 0.0616 | -0.0781 | 0.068
55 | CCOC(=O)c1cnc2ccc(OC)cc2c1NCc1ccccc1 | -0.0203 | -0.0244 | -0.1303
56 | CCOC(=O)c1cnc2c(C)cc(C)cc2c1Nc1ccc(OC)c(OC)c1 | 0.0948 | -0.1039 | -0.222
